The results in this text go back to PubChem BioAssay (NCI).

Where “and” joins values, the source holds several entries; their conditions need not be identical. Identical values can stand only once.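 Five concentrations, 48 hours, 96-well plates. Abbreviation: GI50, concentration required for 50% inhibition of growth. Definition used: TGI = concentration required for complete inhibition of growth.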

Assay in all cases: growth of human tumour cells (NCI), 48 h
Test [1] concerns TK-10 renal.
The subject of test [2] is SF-539 CNS.
Test [3] has as its system NCI-H226 lung.
Test [4] deals with HOP-62 NSCLC.
In test [5] the test system is MALME-3M melanoma.
In test [6] the test system is OVCAR-3 ovarian.
The subject of test [7] is LOX IMVI melanoma.
Test [8] relates to NCI-H460 lung.
In test [9] the test system is OVCAR-8 ovarian.
Test [10] deals with RXF 393 renal.

Take `CC(C)(C)c1ccc(C(O)(c2ccc(C(C)(C)C)cc2)c2ccc(C(C)(C)C)cc2)cc1`: the TGI in test [1], in [2], in [3], in test [4], in test [5] and in test [6] was greater than 100 µM each time. Besides, the TGI in [7], in test [8] and in test [9] was greater than 100 µM in each case.

For the molecule `Cc1ccc(C)c2sc3cc(=O)ccc-3nc12`, the TGI is 66.8 µM in [1]; greater than 100 µM in [2]; greater than 100 µM in test [3]; greater than 100 µM in test [4]; greater than 100 µM in test [6]; greater than 100 µM in [8]. The molecule also yielded a TGI in test [9] greater than 100 µM.

Take `O=C1CCCC2COc3ccc(O)c1c32` (stereo not drawn): the TGI in test [1], in test [2], in test [3], in test [4], in [5] and in [6] was greater than 100 µM throughout. In addition, the TGI in test [8], in test [10] and in test [9] was greater than 100 µM throughout.

As to `O=C(O)c1c(Cl)c(Cl)c(Cl)c(Cl)c1-c1c2cc(I)c(=O)c(I)c-2oc2c(I)c(O)c(I)cc12`, the GI50 is 59 µM in [1]; 32.7 µM and 34.6 µM in test [2]; 79.7 µM and 38.8 µM in [3]; 80.7 µM and 31 µM in test [4]; 32.1 µM and 33 µM in test [6]; 19 µM and 34.7 µM in [7]. Besides, the GI50 in test [8] was 58.8 µM; in test [10], 27.5 µM and 15 µM; in test [9] it was 58.2 µM and 47.4 µM. Moreover, the TGI in test [1] is greater than 200 µM; in test [2] it was 89.7 µM; in test [3] it was 90.9 µM; in test [4] it was 87.4 µM; in test [6] it was 72.1 µM; in test [7], 43.1 µM and 67.9 µM. Moreover, the TGI in [8] was greater than 200 µM; in test [10], 45.4 µM; in [9], 115 µM.

Regarding `CC(C)S(=O)(=O)n1c(N)nc2ccc(/C(=N/O)c3ccccc3)cc21`, the TGI is greater than 100 µM in test [1]; 49.6 µM in test [2]; 23.4 µM in test [3]; 40.8 µM in test [4]; greater than 100 µM in [5]; 50.6 µM in [6]. Moreover, the TGI was greater than 100 µM in test [8], 45.5 µM in [10] and greater than 100 µM in test [9].

Take `CCCCCCCCSC(SCCCCCCCC)=C1C(=O)N(c2ccccc2)N=C1C`: the TGI in [1] was greater than 100 µM; in test [3], greater than 100 µM; in [4] it was greater than 100 µM; in test [5] it was greater than 100 µM; in test [6], greater than 100 µM; in test [7], 36.2 µM. Further, the TGI in test [8], in test [10] and in test [9] was greater than 100 µM each time.

As for `CC(=O)OCC1OC(O[C@@H]2C[C@H]3C(C)(C)[C@H](OC(C)=O)CC[C@]3(C)[C@H]3CC[C@@H]4[C@]5(CC[C@@]4(C)[C@@]32C)O[C@@H]([C@H](O)C(C)(C)O)C[C@@H]5C)C(O)C(O)C1O` (stereo partly drawn), the GI50 in test [3] is 10.7 µM; in test [4], 14.2 µM; in [5], 10.3 µM; in test [6] it was 7.05 µM; in test [7] it was 3.61 µM; in test [8], 6.54 µM. For the same molecule, the GI50 in test [9] is 9.35 µM. Further, the TGI in test [3] was 28.2 µM; in test [4] it was 27.3 µM; in test [5], 22.4 µM; in test [6], 20.5 µM; in test [7], 15.6 µM; in [8], 20.8 µM. Also, the values for the TGI in [10] and in test [9] were 16.1 µM and 23.7 µM, respectively.

Turning to `O=C1CCC(c2ccccc2)(c2ccccc2)CC1`, the TGI in [1], in test [3], in test [4], in [5], in test [6] and in [7] was greater than 100 µM throughout. The TGI in [8], in [10] and in test [9] was greater than 100 µM in each case.

As to `CCn1c(-c2cc3ccccc3cc2OC(=O)c2ccccc2)n[nH]c1=S`, the GI50 was greater than 50 µM in test [1]; greater than 50 µM in test [2]; greater than 50 µM in test [3]; greater than 50 µM in test [4]; greater than 50 µM in test [5]; 3.19 µM in test [6]. Also, the GI50 is 26.6 µM in test [7] and greater than 50 µM in test [10]. The TGI in [1], in test [2], in test [3], in test [4], in [5] and in test [6] was greater than 50 µM in each case. In addition, the TGI in test [7] and in test [10] was greater than 50 µM each time.

Consider `CC1=CC(=O)c2[nH]c3ccccc3c2C1=O`, for which the GI50 is 5.04 µM in [1]; 4.28 µM in test [2]; 6.54 µM in [3]; 4.85 µM in test [5]; 8.11 µM in test [8]; 3.47 µM in test [10]. In addition, the TGI in test [1] is 9.24 µM; in test [2] it was 7.79 µM; in test [3] it was 22.7 µM; in [4], greater than 25 µM; in test [5], 8.54 µM; in [6] it was 8.02 µM. The TGI was greater than 25 µM in [8], 6.74 µM in test [10] and 7.45 µM in test [9].

For `Nc1nc(Cl)cc(NCCCCCCCCCCNc2cc(Cl)nc(N)n2)n1`, the TGI in test [1] is greater than 100 µM; in [2], greater than 100 µM; in [3] it was 20.3 µM; in test [4], greater than 100 µM; in test [6], greater than 100 µM; in test [7], 24.2 µM. Besides, the TGI in test [8] was greater than 100 µM; in test [10] it was greater than 100 µM; in test [9], 63 µM.

For the molecule `O=C1C=Cc2noc3cccc1c23`, the TGI in test [1] was found to be 32.3 µM; in [2], 30.2 µM; in [3], 35.1 µM; in test [5], 25.7 µM; in test [6], 10.9 µM; in [7], 9.51 µM. In addition, the TGI worked out at 5.67 µM in test [10] and 8.13 µM in test [9].
